The text below walks through data of US11814386B2, “Fused pyrrolines which act as ubiquitin-specific protease 30 (USP30) inhibitors” (FORMA Therapeutics, Inc., priority 2018, dated 2023).

In the assay the target is human recombinant USP30 (Homo sapiens (Human), UniProt Q70CQ3). Put plainly: Ubiquitin-Rhodamine 110 Assay for USP30 Activity. The settings on record: 0.2 nM USP30, 25 nM Ub-Rh110, 30 min preincubation. The class given is biochemical. As for the experimental part:
The assay was performed in a final volume of 9 μL in assay buffer containing 20 mM Tris-HCl (pH 8.0, (IM Tris-HCl, pH 8.0 solution; Corning 46-031-CM)), 1 mM GSH (L-glutathione reduced, Sigma-Aldrich, G4251-100G), 0.03% BGG (0.22 μM filtered, Sigma, G7516-25G), and 0.01% Triton X-100 (Sigma, T9284-10L). Nanoliter quantities of 10-point, 3-fold serial dilution in DMSO were pre-dispensed into 1536 assay plates (Corning, #3724BC) for a final test concentration of 25 μM to 1.3 nM, top to lowest dose, respectively. Concentration and incubation times were optimized for the maximal signal-to-background while maintaining initial velocity conditions at a fixed substrate concentration. The final concentration of USP30 (human recombinant USP30, Boston Biochem, cat. #E-582) in the assay was 0.2 nM. Final substrate (Ub-Rh110; Ubiquitin-Rhodamine 110, UbiQ-126) concentration was 25 nM with [Ub-Rh110]<<Km. 3 μL of 2×USP30 was added to assay plates (pre-stamped with compound), preincubated for 30 minutes and then treated with 3 μL of 2×Ub-Rh110. Plates were incubated for 30 minutes at room temperature before addition of 3 μL of stop solution (final concentration of 10 mM citric acid (Sigma, 251275-500G)). Fluorescence was read on the Envision (excitation at 485 nm and emission at 535 nm; Perkin Elmer) or on the PheraSTAR (excitation at 485 nm and emission at 535 nm; BMG Labtech) fluorescence reader.
For all assay formats, data were reported as percent inhibition compared with control wells based on the following equation: % inh=1−((FLU−AveLow)/(AveHigh−AveLow)) where FLU=measured Fluorescence, AveLow=average Fluorescence of no enzyme control (n=16), and AveHigh=average Fluorescence of DMSO control (n=16). IC50 values were determined by curve fitting of the standard 4 parameter logistic fitting algorithm included in the Activity Base software package: IDBS XE Designer Model205. Data is fitted using the Levenburg Marquardt algorithm.

Chain of human recombinant USP30 (Q70CQ3 whole entry): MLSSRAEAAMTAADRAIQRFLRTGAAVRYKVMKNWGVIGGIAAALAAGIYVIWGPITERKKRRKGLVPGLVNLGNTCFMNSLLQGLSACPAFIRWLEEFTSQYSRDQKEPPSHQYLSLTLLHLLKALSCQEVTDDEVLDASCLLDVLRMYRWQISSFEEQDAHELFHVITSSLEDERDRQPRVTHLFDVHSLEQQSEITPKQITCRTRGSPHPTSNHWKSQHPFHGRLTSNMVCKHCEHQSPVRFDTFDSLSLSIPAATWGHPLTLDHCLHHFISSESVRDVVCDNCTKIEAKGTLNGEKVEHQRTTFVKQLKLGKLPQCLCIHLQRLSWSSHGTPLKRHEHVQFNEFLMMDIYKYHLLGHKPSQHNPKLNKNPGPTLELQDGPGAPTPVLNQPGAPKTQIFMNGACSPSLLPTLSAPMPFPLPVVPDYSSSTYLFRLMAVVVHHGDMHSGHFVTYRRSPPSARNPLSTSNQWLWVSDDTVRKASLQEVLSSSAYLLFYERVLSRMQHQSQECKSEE

By IC50 is commonly meant the concentration that inhibits the measured activity by half. With `N#CN1C[C@@H]2C[C@H]1CCN2C(=O)c1cc(-c2ccccc2Oc2ccccc2)[nH]n1` (single isomer, unassigned) [Compound 1-a], the IC50 lay within 100 to 1000 nM.
Take `N#CN1C[C@H]2C[C@@H]1CCN2C(=O)c1cc(-c2ccccc2Oc2ccccc2)[nH]n1` (single isomer, unassigned) [Compound 1b]: the IC50 was under 100 nM.
With `N#CN1CC2CCC1C2NC(=O)c1cc(-c2ccccc2Oc2ccccc2)[nH]n1` (single isomer, unassigned) [Compound 2-a], the half-inhibitory concentration (IC50) was under 100 nM.
As to `N#CN1CC2CCC1C2NC(=O)c1cc(-c2ccccc2Oc2ccccc2)[nH]n1` (single isomer, unassigned) [Compound 2-b], the IC50 was over 1000 nM.
On to `N#CN1C[C@H]2C[C@@]2(NC(=O)c2cc(-c3ccccc3Oc3ccccc3)[nH]n2)C1` (single isomer, unassigned) [Compound 3-a], for which the IC50 lay in the range of 100 to 1000 nM.
The same measure for `N#CN1C[C@@H]2C[C@]2(NC(=O)c2cc(-c3ccccc3Oc3ccccc3)[nH]n2)C1` (single isomer, unassigned) [Compound 3-b]: under 100 nM; for `N#CN1C[C@@H]2C[C@H]1CN2C(=O)c1cc(-c2ccccc2Oc2ccccc2)[nH]n1` (single isomer, unassigned) [Compound 4-a]: 100 to 1000 nM.
The same measure for `N#CN1C[C@H]2C[C@@H]1CN2C(=O)c1cc(-c2ccccc2Oc2ccccc2)[nH]n1` (single isomer, unassigned) [Compound 4-b]: 100 to 1000 nM.
On to `N#CN1C[C@@H](NC(=O)c2cc(-c3ccccc3Oc3ccccc3)[nH]n2)C2(CC2)C1` (single isomer, unassigned) [Compound 5-a], for which the half-inhibitory concentration (IC50) is under 100 nM.
With `N#CN1C[C@H](NC(=O)c2cc(-c3ccccc3Oc3ccccc3)[nH]n2)C2(CC2)C1` (single isomer, unassigned) [Compound 5-b], the concentration for half-maximal inhibition (IC50) lay within 100 to 1000 nM.
As for `N#CN1C[C@H]2C[C@@H]1[C@H]2NC(=O)c1cc(-c2ccccc2Oc2ccccc2)[nH]n1` (single isomer, unassigned) [Compound 8-a], the IC50 is 100 to 1000 nM.
Then `N#CN1C[C@@H]2C[C@H]1[C@@H]2NC(=O)c1cc(-c2ccccc2Oc2ccccc2)[nH]n1` (single isomer, unassigned) [Compound 8-b], with 100 to 1000 nM; and `N#CN1C[C@@H](NC(=O)c2cc(-c3ccccc3Oc3ccccc3)[nH]n2)CC12COC2` (single isomer, unassigned) [Compound 9-a], with over 1000 nM; and `N#CN1C[C@H](NC(=O)c2cc(-c3ccccc3Oc3ccccc3)[nH]n2)CC12COC2` (single isomer, unassigned) [Compound 9-b], with over 1000 nM.
Turning to `N#CN1C[C@@H]2CCC[C@]2(NC(=O)c2cc(-c3ccccc3Oc3ccccc3)[nH]n2)C1` (single isomer, unassigned) [Compound 20-a], the half-inhibitory concentration (IC50) was under 100 nM.
Then `N#CN1C[C@H]2CCC[C@@]2(NC(=O)c2cc(-c3ccccc3Oc3ccccc3)[nH]n2)C1` (single isomer, unassigned) [Compound 20-b], with under 100 nM; and `N#CN1C[C@@H]2CC[C@]2(NC(=O)c2cc(-c3ccccc3Oc3ccccc3)[nH]n2)C1` (stereo in doubt) [Compound 6-a, N-((1R,5S)-3-cyano-3-azabicyclo[3.2.0]heptan-1-yl)-5-(2-phenoxyphenyl)-1H-pyrazole-3-carboxamide], with under 100 nM; and `N#CN1C[C@H]2CC[C@@]2(NC(=O)c2cc(-c3ccccc3Oc3ccccc3)[nH]n2)C1` (stereo in doubt) [Compound 6-b, N-((1S,5R)-3-cyano-3-azabicyclo[3.2.0]heptan-1-yl)-5-(2-phenoxyphenyl)-1H-pyrazole-3-carboxamide], with 100 to 1000 nM.
